Assay results from patent US10941120B1, “6-aminouracil cassic acid ester with antibacterial activity and a method of preparing the same” (SHAANXI UNIVERSITY OF SCIENCE AND TECHNOLOGY, priority 2020, dated 2021).
In brackets after ≈: the same amount, converted by molar mass.

Tests used:
Format in all cases: cell-based
[1] = system: carbapenem-resistant Acinetobacter baumannii CR-AB 18-560; experiment: MIC by microbroth dilution, CR-AB 18-560
Source text: (§1) The minimal inhibitory concentration (MIC) of the compounds as determined by a microbroth dilution method with gentamicin, cefazolin sodium and ceftriaxone sodium as positive control.
(§2) The experimental strains included methicillin-resistant Gram-positive bacteria: methicillin-resistant Staphylococcus aureus MRSA 18-222, 18-575; multiple drug-resistant […] bacteria: vancomycin-resistant enterococci VRE 18-80, 18-94; multidrug-resistant Pseudomonas aeruginosa MDR-PA 18-1774, 18-202; carbapenem-resistant Acinetobacter baumannii CR-AB 18-183, 18-560. All the experimental strains were donated by Huashan Hospital affiliated to Fudan University (Institute of Antibiotics, Fudan University) and used after routine identification.
(§3) Preparation of Test Strains:
(§4) Preparation of MHB medium: 20.0 g MHB medium was added to 1 L distilled water, boiled until completely dissolved, packed in conical bottles and sterilized at 121° C. for 15 min.
(§5) The experimental strain was cultured to the logarithmic growth phase: under aseptic condition, the experimental strain was inoculated into 100 mL NMB medium and incubated in a constant temperature and humidity incubator at 37° C. for 20-22 hours.
(§6) Preparation of storage solution: weigh the sample to be tested, dissolve it with 1% DMSO solution, prepare a storage solution with a concentration of 2560 μg/mL, weigh a positive reference substance, dissolve it with aseptic distilled water, and configure a storage solution with a concentration of 2560 μg/mL.
(§7) Preparation of bacterial suspension: under aseptic condition, the experimental strains cultured to logarithmic growth phase were adjusted to 0.5 MCF turbidity standard with MHB medium and diluted according to 1:10, and the bacterial suspension with concentration of 10^6 CFU/mL was prepared for standby.
(§8) Dilution of storage solution and inoculation of experimental strain: under aseptic condition, the storage solution was diluted to 256 μg/mL solution. Take a sterile 96-well plate, add 200 μL MHB medium to the 12th well, and add 100 μL MHB medium to each well. Add 100 μL of positive control solution to the first well, mix well, and suck 100 μL from it and discard. Add 100 μL of the compound sample solution to the second well, mix well, and then pipette 100 μL to the third well. After mixing, pipette 100 μL to the fourth well, and dilute to the 11th well in this way. Finally, 100 μL was pipetted from the 11th well and discarded. The 12th hole was the growth control without drugs. So far, the concentration of the positive reference substance is 128 μg/mL, the concentrations of the sample solution are 128, 64, 16, 8, 4, 2, 1, 0.5, 0.25 μg/mL respectively. Then, 100 μL of the prepared bacterial suspension is added to each well, so that the final concentration of the bacterial liquid in each well is 5×10^5 CFU/mL.
(§9) Incubation: Cover the 96-well plate inoculated with the experimental strains, and incubate in a constant temperature and humidity box at 37° C. for 20-22 hours.

[2] = system: methicillin-resistant Staphylococcus aureus MRSA 18-222; experiment: MIC by microbroth dilution, MRSA 18-222
Source text: as §1, §2, §3, §4, §5, §6, §7, §8, §9

[3] = system: multidrug-resistant Pseudomonas aeruginosa MDR-PA 18-202; experiment: MIC by microbroth dilution, MDR-PA 18-202
Source text: as §1, §2, §3, §4, §5, §6, §7, §8, §9

[4] = system: multidrug-resistant Pseudomonas aeruginosa MDR-PA 18-174; experiment: MIC by microbroth dilution, MDR-PA 18-174; settings: for Minimum bacteriostatic concentration: MDR-PA 18-174
Source text: as §1, §2, §3, §4, §5, §6, §7, §8, §9
In FIGS. 1-6, the twelve wells represent twelve groups, from left to right, positive, 128 μg/mL, 64 μg/mL, 32 μg/mL, 16 μg/mL, 8 μg/mL, 4 μg/mL, 2 μg/mL, 1 μg/mL, 0.25 μg/mL, 0.0625 μg/mL, Negative.

[5] = system: vancomycin-resistant enterococci VRE 18-80; experiment: MIC by microbroth dilution, VRE 18-80
Source text: as §1, §2, §3, §4, §5, §6, §7, §8, §9

[6] = system: vancomycin-resistant enterococci VRE 18-94; experiment: MIC by microbroth dilution, VRE 18-94; settings: for Minimum bacteriostatic concentration: VRE 18-94
Source text: as §1, §2, §3, §4, §5, §6, §7, §8, §9

[7] = system: carbapenem-resistant Acinetobacter baumannii CR-AB 18-183; experiment: MIC by microbroth dilution, CR-AB 18-183
Source text: as §1, §2, §3, §4, §5, §6, §7, §8, §9

[8] = system: methicillin-resistant Staphylococcus aureus MRSA 18-575; experiment: MIC by microbroth dilution, MRSA 18-575
Source text: as §1, §2, §3, §4, §5, §6, §7, §8, §9

drug-resistant bacteria = experiment: Antibacterial activity test, whole panel of drug-resistant strains; settings: all tested strains, summary in words
Source text: as §1, §2, §3, §4
The experimental strain was cultured to the logarithmic growth phase: under aseptic condition, the experimental strain was inoculated into 100 mL NMB medium and incubated in a constant temperature and humidity incubator at 37° C. for 20-22 hours. […]

Molecule	Minimum bacteriostatic concentration [1] [µg/mL]	Minimum bacteriostatic concentration [2] [µg/mL]	Minimum bacteriostatic concentration [3] [µg/mL]	Minimum bacteriostatic concentration [4] [µg/mL]	Minimum bacteriostatic concentration [5] [µg/mL]	Minimum bacteriostatic concentration [6] [µg/mL]	Minimum bacteriostatic concentration [7] [µg/mL]	Minimum bacteriostatic concentration [8] [µg/mL]	inhibitory effect on drug-resistant bacteria (drug-resistant bacteria)	MIC ([4]; multi-drug resistant Pseudomonas aeruginosa MDR-PA, strain not given) [µg/mL]	MIC ([6]; vancomycin resistant Enterococcus VRE, strain not given) [µg/mL]
Cc1nnc(SCC2=C(C(=O)O)N3C(=O)[C@@H](NC(=O)Cn4cnnn4)[C@H]3SC2)s1 [Cefazolin sodium, cefazolin sodium]	>128	>128	128	8	32	>128	>128	>128			
CO/N=C(\C(=O)N[C@@H]1C(=O)N2C(C(=O)O)=C(CSc3nc(=O)c(=O)[nH]n3C)CS[C@H]12)c1csc(N)n1 [Ceftriaxone sodium, ceftriaxone sodium]	>128	>128	16	128	8	>128	>128	>128			
Nc1cc(=O)[nH]c(=O)[nH]1 [6-Aminouracil]	>128	>128	>128	>128	>128	>128	>128	>128	no inhibitory effect		
gentamicin	>128	128	0.0625	0.0625	0.0625	>128	>128	2			
O=C(O)c1cc(O)c2c(c1)C(=O)c1cccc(O)c1C2=O [Cassic acid]	>128	>128	>128	>128	>128	>128	>128	>128	no inhibitory effect		
O=C(Nc1cc(=O)[nH]c(=O)[nH]1)c1cc(O)c2c(c1)C(=O)c1cccc(O)c1C2=O [6-Aminouracil cassic acid ester, N-(2,6-dioxo-1,2,3,6-tetrahydropyrimidin-4-yl)-4,5-dihydroxy-9,10-dioxo-9,10-dihydroanthracene-2-carboxamide]	>128	>128	>128	128	>128	64	>128	>128		128 (≈ 325 µM)	64 (≈ 163 µM)
